Experimental data from US20130096159A1, “INHIBITORS OF HUMAN 12-LIPOXYGENASE” (The United States of America, as represented the Secretary …, priority 2010, published 2013).

Assays:
[1] = test system: Human islets; assay: gene expression in cytokine-stimulated human islets, Taqman real time PCR; assay type: cell-based; conditions: TNF-α
Experimental: Human islets were incubated for 22 hours following stimulation with the inflammatory cytokines IFN-γ, TNF-α, and IL-1-β alone or in the presence of compound 1 or compound 9. Control islets were incubated for 22 hours in the absence of inflammatory cytokines or compounds. Following the incubation, gene expression for 12-LO, 15-LO, 5-LO, IL-12p40, and IFN-γ were determined using Taqman real time PCR.

[2] = target: T1, recombinant human cPLA2 (Homo sapiens, UniProt P47712); assay: cPLA2 enzymatic activity assay; assay type: biochemical; conditions: 50 μM, 5 min of incubation; FIG. 8
T1 sequence (P47712 1-749): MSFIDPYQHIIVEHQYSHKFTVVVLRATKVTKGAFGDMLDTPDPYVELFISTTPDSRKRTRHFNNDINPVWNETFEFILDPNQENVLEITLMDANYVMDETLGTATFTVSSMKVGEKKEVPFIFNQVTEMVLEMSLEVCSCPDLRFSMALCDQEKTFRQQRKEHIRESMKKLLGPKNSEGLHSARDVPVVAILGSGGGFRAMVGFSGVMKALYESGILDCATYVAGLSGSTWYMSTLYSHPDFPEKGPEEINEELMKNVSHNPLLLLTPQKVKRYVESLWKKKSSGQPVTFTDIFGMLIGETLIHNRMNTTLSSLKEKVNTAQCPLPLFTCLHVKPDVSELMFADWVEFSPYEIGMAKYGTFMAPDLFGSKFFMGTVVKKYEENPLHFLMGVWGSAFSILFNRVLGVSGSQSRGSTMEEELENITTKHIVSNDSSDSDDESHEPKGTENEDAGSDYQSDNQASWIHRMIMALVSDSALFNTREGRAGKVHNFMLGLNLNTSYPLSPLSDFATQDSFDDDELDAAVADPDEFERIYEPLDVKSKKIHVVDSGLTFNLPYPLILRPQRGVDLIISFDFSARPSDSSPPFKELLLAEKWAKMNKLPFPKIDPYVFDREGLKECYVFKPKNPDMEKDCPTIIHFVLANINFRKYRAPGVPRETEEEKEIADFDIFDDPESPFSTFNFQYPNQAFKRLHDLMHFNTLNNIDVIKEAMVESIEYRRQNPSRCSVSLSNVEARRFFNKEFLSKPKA
Experimental: A., et al., Biochemistry, 2011, 50: 1731-1738 with the following differences. The inhibitors in solution in DMSO were added at a final concentration of 50 μM right before the recombinant enzyme was added to initiate the reaction. After 5 min of incubation, the products of reaction were analyzed, and the results depicted in FIG. 8.

[3] = test system: human platelets; assay: dense granule secretion (ATP release) in washed platelets; assay type: cell-based; conditions: induced by thrombin, PAR1-AP, PAR4-AP, ADP, arachidonic acid, collagen; FIG. 3
Experimental: (§1) Human platelets were obtained from healthy volunteers from within the Thomas Jefferson University community and the Philadelphia area. These studies were approved by the Thomas Jefferson University Institutional Review Board. Informed consent was obtained from all donors before blood draw. Blood was centrifuged at 200 g for 15 min at room temperature. Platelet-rich plasma was transferred into a conical tube containing a 10% acid citrate dextrose solution (39 mM citric acid, 75 mM sodium citrate, and 135 mM glucose, pH 7.4) and centrifuged at 2000 g for 15 min at room temperature. Platelets were resuspended in Tyrode's buffer (12 mM NaHCO3, 127 mM NaCl, 5 mM KCl, 0.5 mM NaH2PO4, 1 mM MgCl2, 5 mM glucose, and 10 mM HEPES), and the final platelet concentration was adjusted as indicated after counting using a Coulter counter (Beckman Coulter, Fullerton, Calif.). Reported results are the data obtained using platelets from at least three different subjects.
Washed platelets were obtained as described in Example 10. […] After addition of 5 μl of Chrono-lume reagent (Chrono-log Corp., Havertown, Pa.), ATP release was measured in response to stimulation by the agonists thrombin, PAR1-AP, PAR4-AP, ADP, arachidonic acid, and collagen using a Lumi-aggregometer Model 700D (Chrono-log Corp., Havertown, Pa.) at 37° C. with stirring at 1100 rpm. […]

[4] = test system: human platelets; assay: platelet aggregation in response to agonists, light transmission aggregometry; assay type: cell-based; conditions: agonists thrombin, arachidonic acid, PAR1-AP, PAR4-AP, ADP, collagen; 10 min pretreatment; FIG. 2
Experimental: as §1
Washed platelets were obtained as described in Example 10. […] Platelets were pretreated with compound 1 for 10 min and aggregation in response to stimulation by the agonists thrombin, PAR1-AP, PAR4-AP, ADP and collagen at various agonist concentrations was measured via the light transmission aggregometry method using a lumi-aggregometer model 700D (Chrono-log Corp., Havertown, Pa.) with stirring at 1100 rpm at 37° C. […]

[5] = relative to control islets, IFN-γ, IL-1-β stimulation, 22 hours

SMILES: CCC(=O)NC(c1cccs1)c1cc([N+](=O)[O-])c2cccnc2c1O (stereo not shown) [Compound 1, N-((8-hydroxy-5-nitroquinolin-7-yl)(thiophen-2-yl)methyl)propionamide]
- reduction in IFN-γ expression ([1]; induced by IFN-γ, IL-1-β): 4 fold
- reduction in IL-12p40 mRNA expression ([1]; induced by IFN-γ, IL-1-β): 40 fold
- Change in Gene Expression 5-LO [1, 5]: 1
- Change in Gene Expression 12-LO [1, 5]: 13
- Change in Gene Expression 15-LO [1, 5]: 1
- Change in Gene Expression IFN-γ [1, 5]: 25
- Change in Gene Expression IL-12p40 [1, 5]: 3
- inhibition of cPLA2 [2]: did not inhibit cPLA2
- ATP secretion (dense granule secretion) [3]: substantially complete blockage of ATP secretion
- dose response curves for platelet aggregation [4]: substantially unaffected
